ChEMBL document CHEMBL1909046, “DrugMatrix in vitro pharmacology data”

How the values were obtained:
[1] = DRUGMATRIX: GABAA, Muscimol, Central radioligand binding (ligand: [3H] Muscimol); type: cell membranes, Rattus norvegicus, Wistar, Brain, Membrane; settings: Not Active = under 50% inhibition at 10 µM
Cytochrome P450 1A2 = molecular target: T1, Cytochrome P450 1A2 (Homo sapiens, UniProt P05177); settings: bti-tn-5b1-4; note: in other assays of this panel Not Active means under 50% inhibition at 10 µM
T1 sequence (P05177 whole entry): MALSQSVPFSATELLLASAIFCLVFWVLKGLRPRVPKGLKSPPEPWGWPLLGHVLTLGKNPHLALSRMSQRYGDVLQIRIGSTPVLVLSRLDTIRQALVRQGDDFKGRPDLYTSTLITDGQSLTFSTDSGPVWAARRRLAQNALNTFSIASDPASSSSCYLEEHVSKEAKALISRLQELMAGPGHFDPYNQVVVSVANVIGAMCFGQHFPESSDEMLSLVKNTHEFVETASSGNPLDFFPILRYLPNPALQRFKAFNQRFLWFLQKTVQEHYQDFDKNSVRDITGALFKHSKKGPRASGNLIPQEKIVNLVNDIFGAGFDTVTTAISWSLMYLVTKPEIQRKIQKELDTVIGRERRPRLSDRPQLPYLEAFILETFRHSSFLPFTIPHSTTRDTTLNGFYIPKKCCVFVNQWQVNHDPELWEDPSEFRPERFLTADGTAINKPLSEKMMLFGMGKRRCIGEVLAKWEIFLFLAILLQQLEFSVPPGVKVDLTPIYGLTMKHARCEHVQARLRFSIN

[2] = molecular target: T2, 3-hydroxy-3-methylglutaryl-coenzyme A reductase (Homo sapiens, UniProt P04035); design: species or system Escherichia coli;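 note: enzyme inhibition assay of HMG-CoA reductase using radiolabeled [14C]HMG-CoA as substrate; in other assays of this panel Not Active means under 50% inhibition at 10 µM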
T2 sequence (P04035 whole entry): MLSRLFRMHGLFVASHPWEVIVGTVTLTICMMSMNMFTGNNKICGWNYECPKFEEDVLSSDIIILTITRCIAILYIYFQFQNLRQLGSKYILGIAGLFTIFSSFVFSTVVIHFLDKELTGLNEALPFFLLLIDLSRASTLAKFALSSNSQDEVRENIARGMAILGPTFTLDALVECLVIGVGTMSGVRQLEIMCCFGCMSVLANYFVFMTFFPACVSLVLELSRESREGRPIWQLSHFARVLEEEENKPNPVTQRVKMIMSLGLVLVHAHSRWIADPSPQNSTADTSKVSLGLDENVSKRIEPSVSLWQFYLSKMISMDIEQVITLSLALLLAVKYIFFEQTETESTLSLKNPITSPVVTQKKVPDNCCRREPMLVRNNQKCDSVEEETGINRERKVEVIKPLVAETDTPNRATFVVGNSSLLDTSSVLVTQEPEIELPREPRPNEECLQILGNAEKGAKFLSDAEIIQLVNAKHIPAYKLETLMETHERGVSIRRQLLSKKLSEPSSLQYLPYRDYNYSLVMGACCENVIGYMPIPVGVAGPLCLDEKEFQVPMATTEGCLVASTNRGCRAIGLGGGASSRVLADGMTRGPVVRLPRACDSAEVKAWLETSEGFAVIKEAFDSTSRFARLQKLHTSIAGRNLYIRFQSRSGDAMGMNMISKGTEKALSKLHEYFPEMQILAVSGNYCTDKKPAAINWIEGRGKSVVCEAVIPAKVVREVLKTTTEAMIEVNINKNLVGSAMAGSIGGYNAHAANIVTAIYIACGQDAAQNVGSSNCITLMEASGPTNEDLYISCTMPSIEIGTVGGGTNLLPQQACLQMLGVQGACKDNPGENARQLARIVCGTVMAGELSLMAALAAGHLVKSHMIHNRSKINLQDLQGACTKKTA

[3] = DRUGMATRIX: Calcium Channel Type L, Dihydropyridine radioligand binding (ligand: [3H] Nitrendipine); type: cell membranes, Rattus norvegicus, Wistar, Cerebral cortex, Membrane; settings: Not Active = under 50% inhibition at 10 µM
[4] = molecular target: Receptor tyrosine-protein kinase erbB-2 (Homo sapiens, UniProt P04626); test: biochemical; type: cell-based, Insect cells; settings: insect cells;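 note: inhibition of HER2 kinase enzyme activity, measured with Poly(Glu:Tyr) as the phosphorylation substrate; in other assays of this panel Not Active means under 50% inhibition at 10 µM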
[5] = DRUGMATRIX: Glutamate, Kainate radioligand binding (ligand: [3H] Kainic acid); type: cell membranes, Rattus norvegicus, Wistar, Brain, Membrane; settings: Not Active = under 50% inhibition at 10 µM
Interstitial collagenase = molecular target: T3, Interstitial collagenase (Homo sapiens, UniProt P03956); test: biochemical; type: tissue-based, Rheumatoid synovial fibroblasts;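 note: MMP-1 enzyme inhibition assay using a peptide substrate; in other assays of this panel Not Active means under 50% inhibition at 10 µM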
T3 sequence (P03956 whole entry): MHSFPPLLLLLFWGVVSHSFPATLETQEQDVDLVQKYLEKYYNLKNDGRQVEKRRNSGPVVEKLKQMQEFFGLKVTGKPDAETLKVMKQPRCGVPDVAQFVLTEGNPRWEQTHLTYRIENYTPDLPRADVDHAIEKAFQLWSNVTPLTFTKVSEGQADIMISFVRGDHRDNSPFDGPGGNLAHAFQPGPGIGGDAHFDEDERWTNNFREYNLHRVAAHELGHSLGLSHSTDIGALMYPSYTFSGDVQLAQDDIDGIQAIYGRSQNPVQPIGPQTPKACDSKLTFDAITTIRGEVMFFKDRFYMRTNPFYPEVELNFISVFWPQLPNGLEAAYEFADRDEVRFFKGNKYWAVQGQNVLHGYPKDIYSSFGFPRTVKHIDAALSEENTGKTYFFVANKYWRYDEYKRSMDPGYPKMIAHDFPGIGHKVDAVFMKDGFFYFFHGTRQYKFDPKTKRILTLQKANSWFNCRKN

Receptor tyrosine-protein kinase erbB-2, sequence (P04626 whole entry): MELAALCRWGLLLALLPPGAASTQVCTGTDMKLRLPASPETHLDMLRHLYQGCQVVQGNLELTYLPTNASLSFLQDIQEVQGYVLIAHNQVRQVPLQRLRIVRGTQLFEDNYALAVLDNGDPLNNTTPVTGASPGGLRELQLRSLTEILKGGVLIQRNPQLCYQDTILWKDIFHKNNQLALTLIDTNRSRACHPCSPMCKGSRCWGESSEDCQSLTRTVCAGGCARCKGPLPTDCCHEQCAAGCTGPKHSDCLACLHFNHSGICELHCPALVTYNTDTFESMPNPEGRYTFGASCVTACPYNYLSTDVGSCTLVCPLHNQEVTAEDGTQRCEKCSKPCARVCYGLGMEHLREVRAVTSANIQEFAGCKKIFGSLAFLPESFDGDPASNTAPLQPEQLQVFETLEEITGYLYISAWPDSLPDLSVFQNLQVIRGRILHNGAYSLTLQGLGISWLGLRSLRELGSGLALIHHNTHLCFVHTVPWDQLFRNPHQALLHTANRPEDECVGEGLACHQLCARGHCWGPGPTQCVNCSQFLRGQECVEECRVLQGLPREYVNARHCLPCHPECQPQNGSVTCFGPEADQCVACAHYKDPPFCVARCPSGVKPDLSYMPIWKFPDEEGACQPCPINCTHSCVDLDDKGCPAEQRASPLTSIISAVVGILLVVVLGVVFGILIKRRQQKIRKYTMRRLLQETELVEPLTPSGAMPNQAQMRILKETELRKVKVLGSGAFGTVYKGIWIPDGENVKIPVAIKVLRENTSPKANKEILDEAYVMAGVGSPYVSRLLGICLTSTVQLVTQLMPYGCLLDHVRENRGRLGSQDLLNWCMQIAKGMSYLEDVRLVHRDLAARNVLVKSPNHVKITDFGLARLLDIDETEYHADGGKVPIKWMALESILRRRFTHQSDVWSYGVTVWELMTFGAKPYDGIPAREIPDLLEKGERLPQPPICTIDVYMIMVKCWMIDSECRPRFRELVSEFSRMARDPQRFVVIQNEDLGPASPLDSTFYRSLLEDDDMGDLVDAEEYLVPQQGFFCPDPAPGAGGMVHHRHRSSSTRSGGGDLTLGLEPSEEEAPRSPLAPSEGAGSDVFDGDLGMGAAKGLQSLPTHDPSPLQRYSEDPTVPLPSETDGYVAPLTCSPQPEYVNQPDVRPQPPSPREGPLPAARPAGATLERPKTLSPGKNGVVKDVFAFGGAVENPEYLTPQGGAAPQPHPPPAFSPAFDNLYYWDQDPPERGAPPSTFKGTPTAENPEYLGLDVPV

SMILES	IC50 [1]	Ki [1]	IC50 (Cytochrome P450 1A2)	Ki (Cytochrome P450 1A2)	IC50 [2]	IC50 [3]	Ki [3]	IC50 [4]	IC50 [5]	Ki [5]	IC50 (Interstitial collagenase)	IC50 ([2]; read-out: IC50)
O=C/C=C/c1ccccc1	Not Active	Not Active	Not Active	Not Active	Not Active	Not Active	Not Active	Not Active	Not Active	Not Active	Not Active	–
COc1ccc(C(=O)N2CCCC2=O)cc1	Not Active	Not Active	Not Active	Not Active	Not Active	Not Active	Not Active	Not Active	Not Active	Not Active	Not Active	–
CC[C@H](C)[C@H]1O[C@]2(C=C[C@@H]1C)C[C@@H]1C[C@@H](C/C=C(\C)[C@@H](O[C@H]3C[C@H](OC)[C@@H](O[C@H]4C[C@H](OC)[C@@H](O)[C@H](C)O4)[C@H](C)O3)[C@@H](C)/C=C/C=C3\CO[C@@H]4[C@H](O)C(C)=C[C@@H](C(=O)O1)[C@]34O)O2.CO[C@H]1C[C@H](O[C@H]2[C@H](C)O[C@@H](O[C@@H]3/C(C)=C/C[C@@H]4C[C@@H](C[C@]5(C=C[C@H](C)[C@@H](C(C)C)O5)O4)OC(=O)[C@@H]4C=C(C)[C@@H](O)[C@H]5OC/C(=C\C=C\[C@@H]3C)[C@]54O)C[C@@H]2OC)O[C@@H](C)[C@@H]1O [ABAMECTIN]	Not Active	Not Active	Not Active	Not Active	Not Active	Not Active	Not Active	Not Active	Not Active	Not Active	Not Active	–
Cn1c(=O)c2[nH]cnc2n(C)c1=O.Cn1c(=O)c2[nH]cnc2n(C)c1=O.NCCN [AMINOPHYLLINE]	Not Active	Not Active	Not Active	Not Active	Not Active	Not Active	Not Active	Not Active	Not Active	Not Active	Not Active	–
CC1(C)S[C@@H]2[C@H](NC(=O)[C@H](N)c3ccccc3)C(=O)N2[C@H]1C(=O)O [AMPICILLIN]	Not Active	Not Active	Not Active	Not Active	Not Active	Not Active	Not Active	Not Active	Not Active	Not Active	Not Active	–
COc1ccc2cc3[n+](cc2c1OC)CCc1cc2c(cc1-3)OCO2.[Cl-] [BERBERINE CHLORIDE]	Not Active	Not Active	Not Active	Not Active	Not Active	Not Active	Not Active	Not Active	Not Active	Not Active	Not Active	–
O=C(O)CCNC(=O)c1ccccc1 [BETAMIPRON]	Not Active	Not Active	Not Active	Not Active	Not Active	Not Active	Not Active	Not Active	Not Active	Not Active	Not Active	–
COc1cc(N)c(Cl)cc1C(=O)NC1CCN(CCCOc2ccc(F)cc2)CC1OC (stereo unspecified) [CISAPRIDE]	Not Active	Not Active	Not Active	Not Active	–	Not Active	Not Active	Not Active	Not Active	Not Active	Not Active	3.37 µM
Nc1ccn([C@@H]2O[C@H](CO)[C@@H](O)[C@@H]2O)c(=O)n1 [CYTARABINE]	Not Active	Not Active	Not Active	Not Active	Not Active	Not Active	Not Active	Not Active	Not Active	Not Active	Not Active	–
C[C@@H]1C[C@H]2[C@@H]3CCC4=CC(=O)C=C[C@]4(C)[C@@]3(F)[C@@H](O)C[C@]2(C)[C@@]1(O)C(=O)CO [DEXAMETHASONE]	Not Active	Not Active	Not Active	Not Active	Not Active	Not Active	Not Active	Not Active	Not Active	Not Active	Not Active	–
CN(C)CC[C@@H](c1ccc(Cl)cc1)c1ccccn1 [DEXCHLORPHENIRAMINE]	Not Active	Not Active	Not Active	Not Active	Not Active	Not Active	Not Active	Not Active	Not Active	Not Active	Not Active	–
OC(CCCN1CCCCC1)(c1ccccc1)c1ccccc1 [DIPHENIDOL]	Not Active	Not Active	Not Active	Not Active	Not Active	Not Active	Not Active	Not Active	Not Active	Not Active	Not Active	–
CC[C@H]1CN2CCc3cc(OC)c(OC)cc3[C@@H]2C[C@@H]1C[C@H]1NCCc2cc(OC)c(OC)cc21 [EMETINE]	Not Active	Not Active	Not Active	Not Active	Not Active	Not Active	Not Active	Not Active	Not Active	Not Active	Not Active	–
CCC1(C)CC(=O)NC1=O (stereo unspecified) [ETHOSUXIMIDE]	Not Active	Not Active	Not Active	Not Active	Not Active	Not Active	Not Active	Not Active	Not Active	Not Active	Not Active	–
C=CCc1ccc(O)c(OC)c1 [EUGENOL]	Not Active	Not Active	Not Active	Not Active	Not Active	Not Active	Not Active	Not Active	Not Active	Not Active	Not Active	–
CC(C)(C)NC(=O)[C@H]1CC[C@H]2[C@@H]3CC[C@H]4NC(=O)C=C[C@]4(C)[C@H]3CC[C@]12C [FINASTERIDE]	Not Active	Not Active	Not Active	Not Active	Not Active	Not Active	Not Active	Not Active	Not Active	Not Active	Not Active	–
CC(C)=CCC/C(C)=C/CO [GERANIOL]	Not Active	Not Active	–	–	Not Active	Not Active	Not Active	Not Active	Not Active	Not Active	Not Active	–
N=C(N)NC(=O)Cc1c(Cl)cccc1Cl [GUANFACINE]	Not Active	Not Active	Not Active	Not Active	Not Active	Not Active	Not Active	Not Active	Not Active	Not Active	Not Active	–
